Experimental data taken from patent US6869912B2, “Biocidal composition” (priority 2000, dated 2005).

What was measured:
[1] = Particle size analysis using a Hiac/Royco 8000A Laser Extinction Counter; assay type: physicochemical; conditions: particles formed in Example 1
Source text: Particle size analysis, using a Hiac/Royco […] Laser Extinction Counter of a typical batch of the biocidal preparation gave;

[2] = Settling of copper (II) oxalate particles through water in a measuring cylinder; assay type: physicochemical; conditions: majority of particles, distributed on the surface of a measuring cylinder
Protocol: A portion of a biocidal composition prepared as described above was distributed on the surface of a measuring cylinder. […] After standing for approximately four hours, samples were taken by pipette from various portions of the water body. The concentration of copper (II) ions in the water body was measured, by way of atomic absorption spectrophotometry, at between 5 and 8 parts per million.

plants and animals = conditions: cited from earlier work

O=C([O-])C(=O)[O-].[Cu+2] [copper (II) oxalate]
Predominant particle size [1]: below 10 μm
Settling rate of particles [2]: 2-5 metres per hour

[Cu+2] [copper (II) ions]
Concentration not toxic to almost all plants and animals (plants and animals; over extended periods of time): up to 2 parts per million
Level tolerated by most plants and animals (plants and animals; over relatively short periods of time): 10 parts per million
